Values of other authors, collected in article PMC4990482 (Nature chemical biology, 2016).

Test system: EZH2

CC[C@H](C)n1cc(C)c2c(C(=O)NCc3c(C)cc(C)[nH]c3=O)cc(-c3ccc(N4CCNCC4)nc3)cc21 [GSK126]
selectivity for EZH2 versus EZH1: > 150 fold
